The values below come from US6407064B2, “Aminoalcohol derivative and medicament comprising the same” (Seikagaku Corporation, priority 1999, dated 2002).

Series [1] in a line: Tissue distribution: concentration in plasma and skeletal muscle after oral or intravenous administration. Type of series: in vivo. To be noted: male, Wistar, plasma, rat. The method, then:
Tissue distribution of the compound in Example 19 was compared with that of L-PDMP using 6-8 week old Wistar male rats.
As oral administration, a physiological saline containing 20 mg/ml of a test substance was administered at 100 mg/5 ml/kg, and as intravenous administration, a physiological saline containing 1.25 mg/ml of a test substance was administered to the cervical vein at 5 mg/4 ml/kg.
After the predetermined time had passed since the above administration, blood was collected from the rat cervical vein, a 3.8% sodium citrate solution was added thereto at 1/10 volume, followed by centrifugation at 3,000 rpm for 15 minutes to obtain the supernatant as a plasma sample.
Also, after the predetermined time had passed since the above administration, the skeletal muscle was collected from the femoral region of both hind legs, ice water was added thereto at 4 ml/g tissue, followed by homogenization, and the same volume of acetonitrile was added thereto, followed by vigorously stirring and centrifugation at 4000 rpm for 10 minutes to obtain the supernatant as a skeletal muscle sample.
The plasma and skeletal muscle samples were extracted by OASIS HLB solid phase extraction column (manufactured by Waters), and the concentration of the test compound in the plasma and the muscle was determined by high performance liquid chromatography (HPLC). The conditions of HPLC analysis were as follows:
Detection wavelength: 218 nm
Column: DAISO PACK SP-120-5-ODS-BP
Column temperature: 40° C.
Mobile phase: 0.1% trifluoroacetic acid solution:methanol=36:64 (for L-PDMP); 0.1% trifluoroacetic acid solution:methanol=48:52 (for the compound in Example 19)
The concentrations in the plasma and skeletal muscle of the compound in Example 19 and L-PDMP after the predetermined time has been passed since the administration of the test compounds are shown in Tables 4-6 below. The values are the mean values of at least two test samples. Specifically, Table 4, Table 5, and Table 6 show the concentrations in the plasma after the oral administration of 100 mg/kg, the concentrations in the skeletal muscle after the oral administration of 100 mg/kg, and the concentrations in the plasma after the intravenous administration of 5 mg/kg, respectively.

For series [2], the system named is cultured neurocytes of rat fetal cerebral cortex. The series can be described thus: Activity of accelerating synapse formation (intracellular calcium ion level, fura-2). Format: cell-based. To be noted: relative value, L-PDMP regarded as 100; compound 20 μM; assay on 10th day of culture. The method, then:
The activity of accelerating synapse formation was determined by measuring change of an intracellular calcium ion level resulted from the synchronized spontaneous ignition of neurocytes which is considered to show synapse activities by means of an intracellular calcium ion multipoint observation system using a calcium ion fluorescence indicator, fura-2.
Concretely, rat fetuses at the 18th day of pregnancy were taken out from Wistar rats (available from Japan SLC), and cerebral cortices of the fetuses were taken out and cut into small pieces. After having been treated with papain (manufactured by Worthington Biochemical) at 37° C. for 30 minutes, the pieces were suspended into a Dulbecco modified Eagle's medium containing 5% bovine neonatal serum and 5% equine serum and the cortices were dissociated into single cells with Cell Striner (70 μm, Falcon). Then, the cells were inoculated into a flexiperm plate coated with 0.5% polyethyleneimine (1.0×10^6 cells/500 μl/well), and was cultured in 7% CO2 incubator at 37° C. The medium was exchanged on 2nd, 5th, and 8th days after the culture had been started. The activity of the compound of the present invention was measured using the primary culture. The compound was added at the time when the medium was exchanged and the concentration of the compound was maintained to be 20 μM. Assay was carried out on 10th day after the culture had been started.
(2) Measurement of Activity of Accelerating Synapse Formation
Concretely, after the medium of each well where cells were cultured was substituted with basic salt solution (BSS), 3 μl of a DMSO solution (1 mg/ml) of a calcium ion fluorescence indicator fura-2 was added, and the whole was kept at 37° C. for 1 hour.
On the technique in general: Calcium flux is commonly read through the fluorescence of an indicator in the cells.

Series [3] deals with enzyme for ganglioside GM3 synthesis, mouse B16 melanoma cell. The series can be described thus: Activity of enzyme for ganglioside GM3 synthesis (14C-Gal incorporated in total lipid fraction). Type of series: cell-based. To be noted: relative value, control regarded as 100; test compound 24 μM, 24 hours; 14C-Gal incorporation. The procedure:
The gangliosides produced by mouse B16 melanoma cell are almost composed of ganglioside GM3. Therefore, the activity of the enzyme for ganglioside GM3 synthesis can be determined conveniently by measuring the amount of ^14C-Gal incorporated in a total lipid-extracted fraction through a liquid layer partition method.
A liquid where the cells of mouse B16 melanoma were suspended was prepared with Dulbecco modified Eagle's medium containing 10% bovine fetal serum, inoculated into a 12-well plate in an amount of 2.0×10^5 cells/ml/well, and cultured in 5% CO2 incubator at 37° C. The treatment with a test compound (24 μM) and the addition of ^14C-Gal (22.2 kBq/11.7 nmol/6 μl/well) were started through the exchange of total amount of the medium 24 hours after the culture was started. Twenty-four hours after the treatment with the test compound was started, the culture mixture was treated with PBS containing 0.02% EDTA and PBS containing 0.25% trypsin successively to recover the cells.
Then, a mixed solvent of chloroform:methanol=2:1 (3 ml) was added to the cell pellet and, after the subjection to an ultrasonication for 30 minutes, the supernatant was recovered. Furthermore, a mixed solvent of chloroform:methanol=1:1 (3 ml) was added to the residual pellet after the recovery of the supernatant, and a similar operation was carried out. The resulting supernatant was combined with the first supernatant and the whole was evaporated to dryness under a nitrogen stream. A desalinated water (1.0 ml) was added to the total lipid-extracted fraction. After having been subjected to an ultrasonication for 1 minute, the mixture was transferred into a dialysis tube and dialyzed against water for 2 days. The sample after the dialysis was transferred into a vial for liquid scintillation counter and, after the addition of scintillator, the activity of incorporating ^14C-Gal was measured on scintillation counter.
The values of activity of the compounds of the present invention are shown as relative values obtained by calculation on the basis that the value of a control (a group where no test compound was added) is regarded as 100 in Table 3 below.

For the compound `CCCCCCCCCC(=O)N[C@@H](CN1CCOCC1)[C@@H](O)c1ccccc1` [L-PDMP, (1S,2S)-1-phenyl-2-decanoylamino-3-morpholino-1-propanol, reference compound], the concentration at 10 min in series [1] (intravenous administration of 5 mg/kg, 10 min) amounted to 1030 ng/mL. Besides, the concentration at 25 min in series [1] (intravenous administration of 5 mg/kg, 25 min) was 620 ng/mL. The concentration at 5 min in series [1] (oral administration of 100 mg/kg, 5 min) worked out at 10 ng/mL. This compound also yielded a concentration at 15 min in series [1] (oral administration of 100 mg/kg, 15 min) of 1360 ng/mL. The concentration at 30 min in series [1] (oral administration of 100 mg/kg, 30 min) is 2100 ng/mL. In series [1] (oral administration of 100 mg/kg, 60 min), this compound showed a concentration at 60 min of 1440 ng/mL. Moreover, in series [2], the “Activity of synapse formation” value was 100.0. Also, in series [3], the “Activity of accelerating glycolipid biosynthesis (Test Example 2)” value amounted to 95.2.
